Measurements reported in US20240336642A1 (The General Hospital Corporation, priority 2021, published 2024).
Structures can show the parent of a compound that is named as a salt.

Target: h12/15-LOX (Homo sapiens (Human), UniProt P16050)
Assay: 12/15-LOX enzyme inhibition IC50 assay (Examples 1 and 2)
Format: biochemical
Details: for Emax: h12/15-LOX, read-out: Max % inhibition
Protocol: Enzyme was then added to the cuvettes. […] The % inhibition for each test compound concentration were calculated as follows: […]

Chain of h12/15-LOX (P16050 whole entry): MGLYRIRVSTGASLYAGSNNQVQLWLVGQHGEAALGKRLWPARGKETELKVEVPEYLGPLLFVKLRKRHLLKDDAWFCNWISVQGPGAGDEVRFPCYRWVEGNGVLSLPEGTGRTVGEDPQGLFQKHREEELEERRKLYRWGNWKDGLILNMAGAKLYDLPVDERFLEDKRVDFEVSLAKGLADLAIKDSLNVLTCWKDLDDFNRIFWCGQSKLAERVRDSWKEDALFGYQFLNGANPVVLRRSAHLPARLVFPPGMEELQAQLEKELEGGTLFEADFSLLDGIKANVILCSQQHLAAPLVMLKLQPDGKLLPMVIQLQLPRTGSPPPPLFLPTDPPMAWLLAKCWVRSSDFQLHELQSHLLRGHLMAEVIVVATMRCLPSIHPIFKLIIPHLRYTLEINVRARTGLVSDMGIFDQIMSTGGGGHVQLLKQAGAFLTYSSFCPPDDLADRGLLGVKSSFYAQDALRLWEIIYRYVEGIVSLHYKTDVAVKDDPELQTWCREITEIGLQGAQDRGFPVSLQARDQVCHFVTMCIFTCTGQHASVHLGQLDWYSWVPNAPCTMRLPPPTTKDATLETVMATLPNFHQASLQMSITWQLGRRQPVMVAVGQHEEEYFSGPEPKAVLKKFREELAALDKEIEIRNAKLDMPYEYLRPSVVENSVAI

| Structure (SMILES) | IC50 | Emax |
| --- | --- | --- |
| CNc1oc(-c2c(Cl)ccc(Cl)c2Cl)nc1C#N | > 20000 nM | 32% |
| COCCOC(=O)N(C)c1oc(-c2cc(Cl)cc(Cl)c2Cl)nc1C#N [Compound 55, 2-Methoxyethyl (4-cyano-2-(2,3,5-trichlorophenyl)oxazol-5-yl)(methyl)carbamate] | > 20000 nM | – |
| COCCNc1oc(-c2cc(Cl)cc(C(F)(F)F)c2Cl)nc1C#N [Compound 42, 2-(2,5-Dichloro-3-(trifluoromethyl)phenyl)-5-((2-methoxyethyl)amino)oxazole-4-carbonitrile] | 350 nM | 75% |
| CN(C)CCCCC(=O)Nc1oc(-c2cc(Cl)cc(Cl)c2Cl)nc1C#N [Compound 64, N-(4-Cyano-2-(2,3,5-trichlorophenyl)oxazol-5-yl)-5-(dimethylamino)pentanamide hydrochloride] | > 20000 nM | – |
| CN(CCOCCNc1oc(-c2cc(Cl)cc(Cl)c2Cl)nc1C#N)CC(F)(F)F [Compound 73, 5-((2-(2-(Methyl(2,2,2-trifluoroethyl)amino)ethoxy)ethyl)amino)-2-(2,3,5-trichlorophenyl)oxazole-4-carbonitrile] | 470 nM | 70% |
| COCCOCCNc1oc(-c2cc(Cl)cc(Cl)c2OC(F)F)nc1C#N [Compound 33, 2-(3,5-Dichloro-2-(difluoromethoxy)phenyl)-5-((2-(2-methoxyethoxy)ethyl)amino)oxazole-4-carbonitrile] | 650 nM | 100% |
| COc1cnccc1OCCOCCNc1oc(-c2cc(Cl)cc(Cl)c2Cl)nc1C#N [Compound 99, 5-((2-(2-((3-Methoxypyridin-4-yl)oxy)ethoxy)ethyl)amino)-2-(2,3,5-trichlorophenyl)oxazole-4-carbonitrile] | 1700 nM | 66% |
| N#Cc1nc(-c2cc(Cl)cc(Cl)c2Cl)oc1NCCOCCN1CC(F)(F)C1 [Compound 72, 5-((2-(2-(3,3-Difluoroazetidin-1-yl)ethoxy)ethyl)amino)-2-(2,3,5-trichlorophenyl)oxazole-4-carbonitrile] | > 20000 nM | – |
| N#Cc1nc(-c2cc(Cl)cc(Cl)c2Cl)oc1NCCOCCOCCF [Compound 70, 5-((2-(2-(2-Fluoroethoxy)ethoxy)ethyl)amino)-2-(2,3,5-trichlorophenyl)oxazole-4-carbonitrile] | 1100 nM | 110% |
| CN(CCOCCNc1oc(-c2cc(Cl)cc(Cl)c2Cl)nc1C#N)c1ccncc1 [Compound 90, 5-((2-(2-(Methyl(pyridin-4-yl)amino)ethoxy)ethyl)amino)-2-(2,3,5-trichlorophenyl)oxazole-4-carbonitrile] | > 20000 nM | – |
| N#Cc1nc(-c2cc(Cl)cc(Cl)c2Cl)oc1NCCOCCOc1ccncc1 [Compound 97, 5-((2-(2-(Pyridin-4-yloxy)ethoxy)ethyl)amino)-2-(2,3,5-trichlorophenyl)oxazole-4-carbonitrile] | 110 nM | 68% |
| CN(C(=O)CC1CCNCC1)c1oc(-c2cc(Cl)cc(Cl)c2Cl)nc1C#N [Compound 53] | > 20000 nM | – |
| N#Cc1nc(-c2cc(Cl)cc(Cl)c2Cl)oc1NCC#CCOCc1ccncc1 [Compound 88, 5-((4-(Pyridin-4-ylmethoxy)but-2-yn-1-yl)amino)-2-(2,3,5-trichlorophenyl)oxazole-4-carbonitrile] | 81 nM | 74% |
| COCCOCCOC(=O)N(C)c1oc(-c2cc(Cl)cc(Cl)c2Cl)nc1C#N [Compound 56, 2-(2-Methoxyethoxy)ethyl (4-cyano-2-(2,3,5-trichlorophenyl)oxazol-5-yl)(methyl)carbamate] | > 20000 nM | – |
| CN(c1oc(-c2cc(Cl)cc(Cl)c2Cl)nc1C#N)P(=O)(O)O [Compound 68, (4-cyano-2-(2,3,5-trichlorophenyl)oxazol-5-yl)(methyl)phosphoramidic acid] | > 20000 nM | – |
| Cc1cc(Cl)cc(-c2nc(C#N)c(NCCCCCO)o2)c1Cl [Compound 26, 2-(2,5-Dichloro-3-methylphenyl)-5-((5-hydroxypentyl)amino)oxazole-4-carbonitrile] | 800 nM | 100% |
| CNc1oc(-c2cc(C(F)(F)F)cc(Cl)c2Cl)nc1C#N [Compound 12, 2-(2,3-Dichloro-5-(trifluoromethyl)phenyl)-5-(methylamino)oxazole-4-carbonitrile] | > 20000 nM | 41% |
| CNc1oc(-c2cc(Cl)cc(Cl)c2F)nc1C#N [Compound 3, 2-(3,5-Dichloro-2-fluorophenyl)-5-(methylamino)oxazole-4-carbonitrile] | 330 nM | 88% |
| N#Cc1nc(-c2cc(Cl)cc(Cl)c2Cl)oc1NCCOCCOc1ccnc(F)c1 [Compound 102, 5-((2-(2-((2-Fluoropyridin-4-yl)oxy)ethoxy)ethyl)amino)-2-(2,3,5-trichlorophenyl)oxazole-4-carbonitrile] | 110 nM | 86% |
| CNc1oc(-c2cc(Cl)cc(Cl)c2OC)nc1C#N [Compound 5, 2-(3,5-Dichloro-2-methoxyphenyl)-5-(methylamino)oxazole-4-carbonitrile] | 180 nM | 92% |
| Cc1c(Cl)cc(Cl)cc1-c1nc(C#N)c(NCCCCCO)o1 [Compound 24, 2-(3,5-Dichloro-2-methylphenyl)-5-((5-hydroxypentyl)amino)oxazole-4-carbonitrile] | 320 nM | 80% |
| CN(C)CCCNC(=O)N(C)c1oc(-c2cc(Cl)cc(Cl)c2Cl)nc1C#N [Compound 66, 1-(4-cyano-2-(2,3,5-trichlorophenyl)oxazol-5-yl)-3-(3-(dimethylamino)propyl)-1-methylurea hydrochloride] | > 20000 nM | – |
| Cc1c(Cl)cc(Cl)cc1-c1nc(C#N)c(NCCOCCO)o1 [Compound 30] | – | 100% |
| N#Cc1nc(-c2cc(Cl)cc(Cl)c2Cl)oc1NCC#CCOCc1ccc(C(=O)O)cc1 [Compound 89, 4-(((4-((4-Cyano-2-(2,3,5-trichlorophenyl)oxazol-5-yl)amino)but-2-yn-1-yl)oxy)methyl)benzoic acid] | 1300 nM | 100% |
| N#Cc1nc(-c2cc(Cl)cc(C(F)(F)F)c2Cl)oc1NCCCCCO [Compound 27, 2-(2,5-Dichloro-3-(trifluoromethyl)phenyl)-5-((5-hydroxypentyl)amino)oxazole-4-carbonitrile] | 550 nM | 70% |
| C=CCNc1oc(-c2cc(Cl)cc(Cl)c2Cl)nc1C#N [Compound 14, 5-(allylamino)-2-(2,3,5-trichlorophenyl)oxazole-4-carbonitrile] | 110 nM | 88% |
| N#Cc1nc(-c2cc(Cl)cc(Cl)c2Cl)oc1NCC#CCOCc1ccc(OCCN2CCOCC2)cc1 [Compound 87] | – | 94% |
| COCCOCCNc1oc(-c2cc(Cl)cc(C(F)(F)F)c2Cl)nc1C#N [Compound 37, 2-(2,5-Dichloro-3-(trifluoromethyl)phenyl)-5-((2-(2-methoxyethoxy)ethyl)amino)oxazole-4-carbonitrile] | 1800 nM | 96% |

Other lines, results leading:

| IC50 | Emax | Structure (SMILES) |
| --- | --- | --- |
| > 20000 nM | – | [2H]C([2H])([2H])N(C(=O)OCCCN(C)C)c1oc(-c2cc(Cl)cc(Cl)c2Cl)nc1C#N [Compound 54, hydrochloride] |
| > 20000 nM | 49% | CNc1oc(-c2ccc(Cl)c(Cl)c2Cl)nc1C#N |
| 380 nM | 80% | CNc1oc(-c2cc(C)cc(Cl)c2Cl)nc1C#N [Compound 10, 2-(2,3-Dichloro-5-methylphenyl)-5-(methylamino)oxazole-4-carbonitrile] |
| – | 92% | COCCOc1ccc(COCC#CCNc2oc(-c3cc(Cl)cc(Cl)c3Cl)nc2C#N)cc1 [Compound 85] |
| – | 67% | CNc1oc(-c2cc(Cl)cc(Cl)c2OC(F)F)nc1C#N [Compound 4] |
| 360 nM | 82% | N#Cc1nc(-c2cc(Cl)cc(Cl)c2Cl)oc1NCCOCCOc1cncnc1 [Compound 82, 5-((2-(2-(Pyrimidin-5-yloxy)ethoxy)ethyl)amino)-2-(2,3,5-trichlorophenyl)oxazole-4-carbonitrile] |
| 260 nM | 83% | CN(CCOCCNc1oc(-c2cc(Cl)cc(Cl)c2Cl)nc1C#N)c1ccccc1 [Compound 95, 5-((2-(2-(Methyl(phenyl)amino)ethoxy)ethyl)amino)-2-(2,3,5-trichlorophenyl)oxazole-4-carbonitrile] |
| 8000 nM | 86% | Cc1cc(Cl)c(Cl)c(-c2nc(C#N)c(NCCCCO)o2)c1 [Compound 21, 2-(2,3-Dichloro-5-methylphenyl)-5-((4-hydroxybutyl)amino)oxazole-4-carbonitrile] |
| 460 nM | 68% | Cc1c(Cl)cc(Cl)cc1-c1nc(C#N)c(NCCCCO)o1 [Compound 19, 2-(3,5-Dichloro-2-methylpheny1)-5-((4-hydroxybutyl)amino)oxazole-4-carbonitrile] |
| 63 nM | 85% | CNc1oc(-c2cc(Cl)cc(Cl)c2C)nc1C#N [Compound 2, 2-(3,5-Dichloro-2-methylphenyl)-5-(methylamino)oxazole-4-carbonitrile] |
| > 20000 nM | – | CN(C)CCOC(=O)Nc1oc(-c2cc(Cl)cc(Cl)c2Cl)nc1C#N [Compound 59, 2-(Dimethylamino)ethyl (4-cyano-2-(2,3,5-trichlorophenyl)oxazol-5-yl)carbamate hydrochloride] |
| 3100 nM | 79% | N#Cc1nc(-c2cc(Cl)cc(Cl)c2Cl)oc1NCCOCCN1CCC(F)(F)CC1 [Compound 98, 5-((2-(2-(4,4-Difluoropiperidin-1-yl)ethoxy)ethyl)amino)-2-(2,3,5-trichlorophenyl)oxazole-4-carbonitrile] |
| 2400 nM | 99% | N#Cc1nc(-c2cc(Cl)cc(C(F)(F)F)c2Cl)oc1NCCOCCO [Compound 31, 2-(2,5-Dichloro-3-(trifluoromethyl)phenyl)-5-((2-(2-hydroxyethoxy)ethyl)amino)oxazole-4-carbonitrile] |
| 81 nM | 94% | CNc1oc(-c2cc(Cl)cc(C(F)(F)F)c2Cl)nc1C#N [Compound 8, 2-(2,5-Dichloro-3-(trifluoromethyl)phenyl)-5-(methylamino)oxazole-4-carbonitrile] |
